What follows are compounds tested against T1, human CRTH2 receptor (Homo sapiens, UniProt Q9Y5Y4) (assay: Human CRTH2 receptor membrane radioligand binding assay (SPA, [3H]-PGD2)). Conditions: displacement of [3H]-PGD2 (1 nM) from CHO-K1-hCRTH2 cell membranes, 3 h room temperature.
T1 construct: host or cells: CHO-K1 (CHO-K1-hCRTH2 cells); membranes prepared in house from the purchased cell line
T1 sequence (Q9Y5Y4 1-395): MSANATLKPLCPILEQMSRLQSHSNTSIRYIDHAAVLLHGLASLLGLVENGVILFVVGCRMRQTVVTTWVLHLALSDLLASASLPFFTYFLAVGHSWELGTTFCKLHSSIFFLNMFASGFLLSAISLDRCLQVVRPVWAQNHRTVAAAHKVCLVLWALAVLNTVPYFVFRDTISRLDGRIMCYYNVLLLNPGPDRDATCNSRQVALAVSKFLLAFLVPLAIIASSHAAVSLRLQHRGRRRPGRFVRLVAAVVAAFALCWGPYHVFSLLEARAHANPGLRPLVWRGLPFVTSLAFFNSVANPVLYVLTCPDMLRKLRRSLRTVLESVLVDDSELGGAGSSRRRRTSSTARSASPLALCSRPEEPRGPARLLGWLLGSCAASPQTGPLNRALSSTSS
Method: Preparation of Human CRTH2 Receptor Membranes and Radioligand Binding Assay
The binding of CRTH2 antagonists is determined using membranes prepared from Chinese hamster ovary cells (CHO-K1 cells) transfected with the human CRTH2 receptor (CHO-K1-hCRTH2 cells, Perkin Elmer, Cat No ES-561-C). To produce cell membranes the CHO-K1-hCRTH2 cells are cultured in suspension in CHO SFMII medium supplemented with 400 μg/ml G418. The cells are harvested by centrifugation at 300 g for 10 min at room temperature. The cell pellet is resuspended in Phosphate Buffer Saline (PBS) including a protease inhibitor mix (Complete, Roche) and adjusted to a concentration of 10E7 cells/ml. The CHO-K1-hCRTH2 cells are disrupted by nitrogen […] to obtain the membrane preparation. Cell debris is removed by centrifugation (500 g at 4° C., 30 min) and the supernatant is transferred into fresh tubes followed by a second centrifugation at 40000 g for 1 h at 4° C. to sediment the membranes. The membranes are suspended in SPA incubation buffer (50 mM Tris HCl, 10 mM MgCl2, 150 mM NaCl, 1 mM EDTA, pH 7.4) without bovine serum albumin, homogenized by passing through a single use needle (Terumo, 23G×1″), and stored in aliquots at −80° C.
The CRTH2 receptor binding assay is performed in a scintillation proximity assay (SPA) format with the radioligand [^3H]-PGD2 (Perkin Elmer, NET616000MC). CHO-K1-hCRTH2 cell membranes are again homogenized by passing through a single use needle (Terumo, 23G×1″) and diluted in SPA incubation buffer in suitable concentrations (0.5-10 μg protein/well). The SPA assay is set up in 96 well microtiter plates (Perkin Elmer, CatNo. 6005040) in SPA incubation buffer with a final volume of 200 μl per well and final concentration of 50 mM Tris-HCl, 10 mM MgCl2, 150 mM NaCl, 1 mM EDTA pH 7.4, 0.1% bovine serum albumin). The SPA assay mixture contains 60 μl of the membrane suspension, 80 μl of Wheat Germ Agglutinin coated PVT beads (GE Healthcare, RPNQ-0001, 0.3 mg/well), 40 μl of [3H]-PGD2 diluted in SPA buffer to a final concentration of 1 nM (50 000 dpm) and 20 μl of the test compound (dissolved in dimethylsulfoxid). The SPA assay mixture is incubated for 3 h at room temperature. Bound radioactivity is determined with a scintillation counter (Micro Beta Trilux, Wallac).
The binding of [^3H]-PGD2 to CHO-K1-hCRTH2 cell membranes is determined in the absence (total binding, Bo) and presence (non-specific binding, NSB) of unlabelled PGD2 (1 μM, Cayman Chemical, Cat No 12010) or a reference CRTH2 antagonist (10 μM CAY10471, Cayman Chemical, Cat No 10006735).
Determination of the affinity of a test compound is calculated by subtraction of the non-specific binding (NSB) from the total binding (Bo) or the binding in the presence of the test compound (B) at a given compound concentration. […] The Bo−NSB value is set to 0% inhibition.

| SMILES | Ki [nM] |
| --- | --- |
| CCc1nn(Cc2ccc(OCc3ccc(OC)c(C(F)(F)F)c3)cc2)c(CC)c1CC(=O)O [Example 13.12] | 5 |
| Cc1cc(Br)ccc1C(=O)Nc1ccc(Cn2nc(C)c(CC(=O)O)c2C)cc1 [Example 1.16] | 3.9 |
| CCc1nn(Cc2ccc(C(=O)Nc3ccc(Cl)c(C(F)(F)F)c3)cc2)c(CC)c1CC(=O)O [Example 9.13] | 0.9 |
| CCc1nn(Cc2ccc(NC(=O)c3cccc(Cl)c3Cl)cc2)c(CC)c1CC(=O)O [Example 2.20] | 13.9 |
| Cc1nn(Cc2ccc(NC(=O)c3ccccc3)cc2)c(C)c1CC(=O)O [Example 1.3] | 30.8 |
| Cc1nn(Cc2ccc(OCc3ccc(Cl)c(C(F)(F)F)c3)cc2)c(C)c1CC(=O)O [Example 13.5] | 36 |
| Cc1nn(Cc2ccc(NS(=O)(=O)c3ccc(C(F)(F)F)cc3)cc2)c(C)c1CC(=O)O [Example 5.4] | 230 |
| Cc1nn(Cc2ccc(NC(=O)OC(C)(C)C)cc2)c(C)c1CC(=O)O [Example 3.8] | 28.6 |
| Cc1nn(Cc2ccc(OCc3ccccc3)cc2)c(C)c1CC(=O)O [Example 13.4] | 325 |
| Cc1nn(Cc2ccc(C[S+]([O-])c3ccc(Cl)c(Cl)c3)cc2)c(C)c1CC(=O)O (stereo not shown) [Example 16.5] | 325 |
| CCc1nn(Cc2ccc(C(=O)Nc3ccc(Cl)c(C(F)(F)F)c3)cc2F)c(CC)c1CC(=O)O [Example 9.27] | 0.5 |
| CCc1nn(Cc2ccc(C(=O)Nc3ccc4ccccc4n3)cc2)c(CC)c1CC(=O)O [Example 9.23] | 4 |
| Cc1nn(Cc2ccc(NC(=O)c3ccc(Cl)c(Cl)c3)cn2)c(C)c1CC(=O)O [Example 18.1] | 1.6 |
| Cc1nn(Cc2ccc(NC(=O)c3ccc4ccccc4c3)cc2)c(C)c1CC(=O)O [Example 1.7] | 2.5 |
| Cc1nn(Cc2ccc(C(C)Oc3ccc(C(F)(F)F)cc3)cc2)c(C)c1CC(=O)O (stereo not shown) [Example 14.5] | 253 |
| CCc1nn(Cc2ccc(S(=O)(=O)Nc3ccc(Cl)c(F)c3)cc2)c(CC)c1CC(=O)O [Example 10.5] | 27.8 |
| Cc1nn(Cc2ccc(CSc3ccc(Cl)c(Cl)c3)cc2)c(C)c1CC(=O)O [Example 16.4] | 875 |
| Cc1nn(Cc2ccc(NC(=O)C(C)C)cc2)c(C)c1CC(=O)O [Example 1.32] | 32.5 |
| Cc1nn(Cc2ccc(NC(=O)C3CCC3)cc2)c(C)c1CC(=O)O [Example 1.35] | 44.6 |
| CCc1nn(Cc2ccc(NC(=O)C3[C@H]4C[C@@H]5C[C@@H](C[C@H]3C5)C4)cc2)c(CC)c1CC(=O)O (stereo partly shown) [Example 2.33] | 0.8 |

| SMILES | Ki [nM] |
| --- | --- |
| Cc1nn(Cc2ccc(NS(=O)(=O)c3ccccc3)cc2)c(C)c1CC(=O)O [Example 5.1] | 43.9 |
| Cc1nn(Cc2ccc(NC(=O)c3ccc(Cl)c(Cl)c3)cc2)c(C)c1CCC(=O)O [Example 8.6] | 126 |
| O=C(O)Cc1c(-c2ccccc2)nn(Cc2ccc(NC(=O)c3ccc(C(F)(F)F)cc3)cc2)c1-c1ccccc1 [Example 2.45] | 8.9 |
| Cc1nn(Cc2ccc(NC(=O)c3ccc4ccccc4c3)cc2)cc1CC(=O)O [Example 2.57] | 19.3 |
| Cc1nn(Cc2ccc(OCc3ccc(C(F)(F)F)cc3)cc2)c(C)c1CC(=O)O [Example 13.2] | 1070 |
| Cc1nn(Cc2ccc(NC(=O)c3ccc(C(C)(C)C)cc3)cc2)c(C)c1CCC(=O)O [Example 8.4] | 26.1 |
| CCc1nn(Cc2ccc(NC(=O)c3ccc(Cl)cc3Br)cc2)c(CC)c1CC(=O)O [Example 2.24] | 2.8 |
| Cc1nn(Cc2ccc(NC(=O)c3ccc4ccccc4n3)cc2)c(C)c1CC(=O)O [Example 1.9] | 28.3 |
| Cc1nn(Cc2ccc(NC(=O)c3ccc4ccccc4c3Br)cc2)c(C)c1CC(=O)O [Example 1.30] | 14.6 |
| CCc1nn(Cc2ccc(C(=O)Nc3ccc(F)c(Br)c3)cc2)c(CC)c1CC(=O)O [Example 9.14] | 3.1 |
| Cc1nn(Cc2ccc(NC(=O)c3cccc4c3CCCC4)cc2)c(C)c1CC(=O)O [Example 1.29] | 2.5 |
| CCc1nn(Cc2ccc(C(=O)Nc3ccc(Br)c(F)c3)cc2)c(CC)c1CC(=O)O [Example 9.16] | 6.7 |
| Cc1nn(Cc2ccc(C(=O)Nc3ccc(Cl)c(F)c3)cc2)c(C)c1CC(=O)O [Example 9.2] | 24.5 |
| CCc1ccccc1C(=O)Nc1ccc(Cn2nc(CC)c(CC(=O)O)c2CC)cc1 [Example 2.23] | 6.1 |
| Cc1nn(Cc2ccc(C(=O)Nc3ccc(Cl)c(Cl)c3)cc2)c(C)c1CC(=O)O [Example 9.3] | 8.7 |
| Cc1nn(Cc2ccc(NCc3ccc(Cl)cc3)cc2)c(C)c1CC(=O)O [Example 6.1] | 438 |
| Cc1nn(Cc2ccc(/C=C/c3ccc(C(F)(F)F)cc3)cc2)c(C)c1CC(O)O [Example 12.2] | 56.3 |
| CCc1nn(Cc2ccc(NC(=O)c3cccc(C)c3Br)cc2)c(CC)c1CC(=O)O [Example 2.25] | 46.6 |
| Cc1nn(Cc2ccc(NC(=O)c3ccc(Cl)cc3)cc2Cl)c(C)c1CC(=O)O [Example 7.6] | 1.2 |
| Cc1nn(Cc2ccc([S+]([O-])Cc3ccc4ccccc4c3)cc2)c(C)c1CC(=O)O (stereo not shown) [Example 19.1] | 43.5 |

| SMILES | Ki [nM] |
| --- | --- |
| CCc1nn(Cc2ccc(C(=O)NC3CCC(C(C)(C)C)CC3)cc2)c(CC)c1CC(=O)O (stereo not shown) [Example 9.26] | 39.4 |
| CCc1nn(Cc2ccc(NC(=O)C3CCCCC3)cc2)c(CC)c1CC(=O)O [Example 2.18] | 2.8 |
| CCc1c(CC(=O)O)c(C)nn1Cc1ccc(NC(=O)c2ccc(C(F)(F)F)cc2)cc1 [Example 2.52] | 0.5 |
| CCc1nn(Cc2ccc(C(=O)Nc3cccc(F)c3)cc2)c(CC)c1CC(=O)O [Example 9.10] | 39.1 |
| Cc1nn(Cc2ccc(NC(=O)c3ccc4ccccc4c3)cc2F)c(C)c1CC(=O)O [Example 7.20] | 2.2 |
| Cc1nn(Cc2ccc(NC(=O)OCc3ccc(Cl)c(Cl)c3)cc2)c(C)c1CC(=O)O [Example 3.4] | 0.5 |
| CCc1c(CC(=O)O)cnn1Cc1ccc(NC(=O)c2ccc3ccccc3c2)cc1 [Example 2.59] | 17.4 |
| Cc1nn(Cc2ccc(NC(=O)/C=C/c3ccc(Cl)cc3)cc2)c(C)c1CC(=O)O [Example 1.14] | 1.1 |
| CCc1nn(Cc2ccc(/C=C/c3ccc(Cl)cc3)cc2)c(CC)c1CC(=O)O [Example 12.3] | 12.3 |
| Cc1cc(C(F)(F)F)ccc1C(=O)Nc1ccc(Cn2nc(C)c(CCC(=O)O)c2C)cc1 [Example 8.7] | 669 |
| Cc1nn(Cc2ccc(OCc3ccc(Cl)c(Cl)c3)cc2)c(C)c1CC(=O)O [Example 13.1] | 30 |
| CCc1nn(Cc2ccc(OCc3cccc(Cl)c3)cc2)c(CC)c1CC(=O)O [Example 13.9] | 39.1 |
| Cc1nn(Cc2ccc(NS(=O)(=O)c3ccc(Cl)c(Cl)c3)cc2)c(C)c1CC(=O)O [Example 5.3] | 30.6 |
| Cc1nn(Cc2ccc(NC(=O)C3CCCCC3)cc2)c(C)c1CC(=O)O [Example 1.33] | 29.8 |
| Cc1cc(C(=O)Nc2ccc(Cn3nc(C)c(CC(=O)O)c3C)cc2)c(C)cc1Br [Example 1.17] | 2.5 |
| CCc1nn(Cc2ccc(NC(=O)c3ccc(Br)cc3Cl)cc2)c(CC)c1CC(=O)O [Example 2.22] | 1.9 |
| Cc1nn(Cc2ccc(NC(=O)c3ccc(Cl)cc3Cl)cc2)c(C)c1CC(=O)O [Example 1.18] | 17.9 |
| Cc1nn(Cc2ccc(NC(=O)NCc3ccccc3)cc2)c(C)c1CC(=O)O [Example 4.1] | 16.8 |

Source: patent US20140148484A1, “PYRAZOLE COMPOUNDS FOR TREATING HAIRLOSS” (Boehringer Ingelheim International GmbH, priority 2012, published 2014)
